The values below come from ChEMBL document CHEMBL5046303, “Discovery of TAK-925 as a Potent, Selective, and Brain-Penetrant Orexin 2 Receptor Agonist” (ACS Med Chem Lett, 2022).

One assay deals with Mus musculus. Nature of the assay: Sleep modulation activity in ICR mouse assessed as increase in time spent in wakefulness at 3 mg/kg, sc administered at zeitgeber time 5 measured after 3 hrs post injection. The format is functional, organism-based.
The next assay concerns the target T1, Orexin receptor type 2 (Homo sapiens, UniProt O43614).
T1 sequence (O43614 whole entry): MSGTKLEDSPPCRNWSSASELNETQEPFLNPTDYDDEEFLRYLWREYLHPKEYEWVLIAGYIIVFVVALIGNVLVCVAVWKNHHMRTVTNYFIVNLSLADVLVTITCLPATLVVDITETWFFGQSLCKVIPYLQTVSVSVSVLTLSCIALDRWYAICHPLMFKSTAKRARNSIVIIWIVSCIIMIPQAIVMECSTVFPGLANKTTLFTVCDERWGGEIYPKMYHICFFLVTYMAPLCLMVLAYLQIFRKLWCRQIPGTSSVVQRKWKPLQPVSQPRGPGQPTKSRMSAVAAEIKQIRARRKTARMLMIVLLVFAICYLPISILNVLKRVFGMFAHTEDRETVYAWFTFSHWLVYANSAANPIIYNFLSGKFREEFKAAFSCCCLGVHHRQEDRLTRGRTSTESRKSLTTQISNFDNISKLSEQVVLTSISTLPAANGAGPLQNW
Nature of the assay: Agonist activity at human OX2R expressed in CHO-K1 cells by FLIPR calcium flux assay. The format is functional, cell-based.

The source made the active and inactive calls. The calls are words filed in the database; no cut-off is given here.

Regarding `COC(=O)N1CCC[C@H](NS(C)(=O)=O)[C@@H]1CO[C@H]1CC[C@@H](c2ccccc2)CC1`, in the assay with Mus musculus, the result was Active. As to `CC[C@H](C)[C@H](NC(=O)CNC(=O)[C@H](C)NC(=O)[C@H](C)NC(=O)[C@H](Cc1cnc[nH]1)NC(=O)[C@H](CC(N)=O)NC(=O)CNC(=O)[C@H](C)NC(=O)CNC(=O)[C@H](Cc1cnc[nH]1)NC(=O)[C@H](CC(C)C)NC(=O)[C@H](CC(C)C)NC(=O)[C@H](CCC(=O)O)NC(=O)[C@H](Cc1ccc(O)cc1)NC(=O)[C@H](CC(C)C)NC(=O)[C@H](CCCNC(=N)N)NC(=O)[C@H](CS)NC(=O)[C@H](CO)NC(=O)[C@H](CS)NC(=O)[C@@H](NC(=O)[C@H](CCCCN)NC(=O)[C@H](CCC(N)=O)NC(=O)[C@H](CCCNC(=N)N)NC(=O)[C@H](CS)NC(=O)[C@H](CS)NC(=O)[C@H](CC(=O)O)NC(=O)[C@@H]1CCCN1C(=O)[C@H](CC(C)C)NC(=O)[C@@H]1CCCN1C(=O)[C@@H]1CCC(=O)N1)[C@@H](C)O)C(=O)N[C@@H](CC(C)C)C(=O)N[C@H](C(=O)N[C@@H](CC(C)C)C(=O)O)[C@@H](C)O`, the EC50 (commonly the midpoint of the concentration-response curve) at Orexin receptor type 2 stood at 0.18 nM.
